Results as given in publication PMC11266668, “Unraveling the mechanism of small molecule induced activation of Staphylococcus aureus signal peptidase IB” (Communications Biology, 2024).
In brackets after ≈: the same amount, converted by molar mass. Several values for one entry are separate records, joined by “and”; a condition that tells them apart may be missing. Equal entries are not always repeated.

Columns and labels:
[1] = biological target: T1, wt SpsB (Staphylococcus aureus, UniProt P0A070); test: FRET-based signal peptidase assay with membrane-bound SpsB (wt); type: biochemical, S. aureus
T1 construct: recombinantly expressed full-length S. aureus SpsB (wt) or mutants; made in house; host or cells: E. coli BL21(DE3)pLysS, membrane fraction
Method: For preparation of E. coli membrane fractions harboring overexpressed S. aureus SpsB, E. coli BL21(DE3) pLysS cells harboring pET-55-DEST-fl-SpsB or respective mutant plasmids (F67A, Y75A, F158A, Q165A, F67A-Y75A, F67A-F158A, Y75A-F158A, F67A-Y75A-F158A) were grown in LB medium (supplemented with Ampicillin (100 µg/mL) and Chloramphenicol (34 µg/mL)) at 37°C (200 rpm) to OD600 ≈ 0.6 and protein overexpression was induced by the addition of isopropyl-1-thio-β-galactopyranoside (IPTG, 0.5 mM). After incubation (22 °C, 200 rpm, 3 h), cells were harvested by centrifugation (6000 × g, 4 °C, 10 min) and subsequently washed with PBS. The cell pellet was resuspended in 5 mL Tris-HCl buffer (50 mM, pH = 7.5) and lysed using a bead beater homogenizer (3 cycles: 5500 rpm for 45 s, 30 s cooling; Precellys Ceramic Kit CK01L, 7.0 mL tubes; Precellys 24 Homogenizer, Bertin Technologies). The lysate was centrifuged (12,000 × g, 4 °C, 10 min) to remove intact cells and debris. Membranes were collected from supernatant (39,000 × g, 4 °C, 75 min) and resuspended in ice-cold sodium phosphate buffer (50 mM, pH 7.5). Protein concentration was measured using the Pierce BCA Protein assay kit (Thermo Fisher Scientific, Pierce Biotechnology) and snap-frozen aliquots were stored at −80 °C.
Signal cleavage activities of recombinantly expressed full-length S. aureus SpsB (wt) or mutants (F67A, Y75A, F158A, Q165A, F67A-Y75A, F67A-F158A, Y75A-F158A, F67A-Y75A-F158A) in E. coli membranes were measured using a Förster Resonance Energy Transfer (FRET) assay as previously described[20],[36].
A synthetic peptide substrate based on SceD modified by 4-(4- dimethylaminophenylazo)benzoic (DABCYL) acid and 5-((2-aminoethyl)amino)-1- naphthalenesulfonic acid (EDANS) was used (DABCYL-[…]-EDANS, AnaSpec) as FRET substrate. Assays were performed with overexpressed wildtype SpsB (wt) or mutant (F67A, Y75A, F158A, Q165A, F67A-Y75A, F67A-F158A, Y75A-F158A, F67A-Y75A-F158A) in E. coli membranes. As controls for background activity, respective E. coli membranes without IPTG induction were used (see Experimental procedure “Preparation of E. coli membrane (control) fractions. Membranes containing recombinant wildtype SpsB or mutant (50 µg/mL membrane concentration, 100 µL/well final volume, sodium phosphate buffer, 50 mM, pH 7.5, addition of detergent if indicated; final concentrations in buffer: 0.1% CHAPS, 0.001% NP-40 or 0.1% Tween) were pre-treated with PK150, Arylomycin A4 or DMSO as a control (final concentration 1%) at 37 °C for 5 min. After addition of FRET substrate (10 µM final substrate concentration; final DMF concentration from substrate stock 1%), fluorescence turnover was monitored by an Infinite™ M Nano Tecan 200Pro reader (340 nm excitation and 510 nm emission wavelengths, fluorescence top reading mode) at 37 °C for at least 2 h.
The assay was performed in technical triplicates for at least three biologically independent experiments (n ≥ 3). Significance of cleavage activity was determined via a two-tailed Students t-test for comparison of membranes treated with DMSO to PK150.

[2] = biological target: T2, SpsB Q165A mutant (Staphylococcus aureus, UniProt P0A070, Q165A); test: FRET-based signal peptidase assay with membrane-bound SpsB, Q165A mutant; type: biochemical, S. aureus; settings: 10 µM; relative to DMSO
T2 construct: recombinantly expressed full-length S. aureus SpsB (wt) or mutants; made in house; host or cells: E. coli BL21(DE3)pLysS, membrane fraction
T2 sequence (P0A070 1-191 Q165A): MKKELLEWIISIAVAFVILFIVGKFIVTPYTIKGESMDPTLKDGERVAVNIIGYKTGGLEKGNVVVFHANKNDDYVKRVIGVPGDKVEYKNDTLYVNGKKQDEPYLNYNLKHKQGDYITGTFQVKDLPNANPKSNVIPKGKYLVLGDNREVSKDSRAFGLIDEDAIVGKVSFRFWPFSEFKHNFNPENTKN
Method: Cloning of full-length SpsB (fl-SpsB) was performed using the Invitrogen Gateway Technology in previous works by Le et al.. fl-SpsB was cloned into the destination vector pET-55-DEST (Novagen) and transformed into chemically competent E. coli BL21(DE3)pLysS cells (Promega) to prevent leaky protein overexpression. Plasmid DNA of wildtype SpsB pET-55-DEST-fl-SpsB was purified using a plasmid Miniprep Kit (peqGOLD Plasmid Miniprep Kit II, VWR Peqlab) according to the manufacturer’s instructions and used as template for all single point mutations (F67A, Y75A, F158A, Q165A). […]
For preparation of E. coli membrane fractions harboring overexpressed S. aureus SpsB, E. coli BL21(DE3) pLysS cells harboring pET-55-DEST-fl-SpsB or respective mutant plasmids (F67A, Y75A, F158A, Q165A, F67A-Y75A, F67A-F158A, Y75A-F158A, F67A-Y75A-F158A) were grown in LB medium (supplemented with Ampicillin (100 µg/mL) and Chloramphenicol (34 µg/mL)) at 37°C (200 rpm) to OD600 ≈ 0.6 and protein overexpression was induced by the addition of isopropyl-1-thio-β-galactopyranoside (IPTG, 0.5 mM). […] Protein concentration was measured using the Pierce BCA Protein assay kit (Thermo Fisher Scientific, Pierce Biotechnology) and snap-frozen aliquots were stored at −80 °C. […]

[3] = biological target: T1, wt SpsB; settings: cited from earlier work
[4] = test system: S. aureus NCTC 8325; parameters: method as in Le et al., Nat Chem. 2020; settings: ref Le et al., Nat Chem. 2020; cited from earlier work

SMILES | wt DMSO + 0.001% NP-40 norm. value ([1]; 0.001% NP-40, normalized to DMSO + 0.001% NP-40 (100), single biological replicates) | wt DMSO + 0.01% Tween norm. value ([1]; 0.01% Tween, normalized to DMSO + 0.01% Tween (100), single biological replicates) | wt DMSO + 0.1% Chaps norm. value ([1]; 0.1% Chaps, normalized to DMSO + 0.1% Chaps (100), single biological replicates) | allosteric stimulation of SpsB activity ([1]; 10 µM in E. coli induced SpsB membranes) [%] | elevated activity in wildtype SpsB ([1]; 10 µM, relative to DMSO) [fold] | activation of wt SpsB in presence of detergents ([1]; 0.01% Tween, 0.001% NP-40, 0.1% CHAPS (<cmc), PK150 10 µM) | activity at 0.195 µM ([1]; PK150 0.195uM, replicates, read-out: wt PK150 (normalized activity)) [%] | activity at 0.39 µM ([1]; PK150 0.39uM, replicates, read-out: wt PK150 (normalized activity)) [%] | activity at 1.5625 µM ([1]; PK150 1.5625uM, replicates, read-out: wt PK150 (normalized activity)) [%] | wt PK150 10 µM norm. value ([1]; PK150 10 µM, substrate cleavage rate normalized to DMSO (100), single biological replicates) | overactivation at higher compound concentrations ([1]; higher compound concentrations (Figure 3a)) | elevated activity in Q165A mutant [2] [fold] | overactivation compared to DMSO ([3]; 50 µM compound concentration, ref Le et al., Nat Chem. 2020) [%] | overactivation of SpsB [3] | MIC [4] [µM]
C[S+](C)[O-] [DMSO] | 144.811 and 130.505 | 133.237 and 138.302 | 187.838 and 176.739 |  |  |  |  |  |  |  |  |  |  |  | 
O=C(Nc1ccc2c(c1)OC(F)(F)O2)Nc1ccc(Cl)c(C(F)(F)F)c1 [PK150, (4-Chloro-3-(trifluoromethyl)phenyl)-3-(2,2-difluorobenzo[d][1,3]dioxol-5-yl)urea] |  |  |  | 170 | 1.7 | Activation of wt SpsB with PK150 could still be shown for all detergents | 111 | 127 | 131 | 153.034 and 181.137 and 173.665 and 173.73 and 163.958 and 182.132 | up to 250% | 1.7 | 250 | up to 3 fold | 0.3 (≈ 0.118 µg/mL)
